Test results reported in patent US9708370B2, “Azapeptides as CD36 binding compounds” (VALORISATION-RECHERCHE, LIMITED PARTNERSHIP, priority 2007, dated 2017).
pIC50: −log10 of the molar value. Like-named read-outs stand apart in the source and are kept apart here. Starred links: 1 amine or outer side, 2 acyl side, 3 side chain; linkers in the order of their positions; H or OH if unused. Non-standard residues stand in square brackets, D forms with d. Residues, ends and D or L forms follow the SMILES beside them. azaTyr = O=C(N(Cc1ccc(O)cc1)N[*:1])[*:2]; X3 = O=C(N(Cc1cccc2ccccc12)N[*:1])[*:2]; azaPhe = O=C(N(Cc1ccccc1)N[*:1])[*:2]; azaLeu = CC(C)CN(N[*:1])C(=O)[*:2]; azaGly = NNC(=O)O

How the values were obtained:
[1] = target: CD36 (Rattus norvegicus (Rat), UniProt Q07969); assay: CD36 receptor covalent photolabelling binding assay, competition with [125I]Tyr-Bpa-Ala-hexarelin on rat cardiac membranes; conditions: for binding activity/affinity at CD36 in words: compared with parent peptide GHRP-6 or hexarelin
Sequence of CD36 (Q07969 whole entry): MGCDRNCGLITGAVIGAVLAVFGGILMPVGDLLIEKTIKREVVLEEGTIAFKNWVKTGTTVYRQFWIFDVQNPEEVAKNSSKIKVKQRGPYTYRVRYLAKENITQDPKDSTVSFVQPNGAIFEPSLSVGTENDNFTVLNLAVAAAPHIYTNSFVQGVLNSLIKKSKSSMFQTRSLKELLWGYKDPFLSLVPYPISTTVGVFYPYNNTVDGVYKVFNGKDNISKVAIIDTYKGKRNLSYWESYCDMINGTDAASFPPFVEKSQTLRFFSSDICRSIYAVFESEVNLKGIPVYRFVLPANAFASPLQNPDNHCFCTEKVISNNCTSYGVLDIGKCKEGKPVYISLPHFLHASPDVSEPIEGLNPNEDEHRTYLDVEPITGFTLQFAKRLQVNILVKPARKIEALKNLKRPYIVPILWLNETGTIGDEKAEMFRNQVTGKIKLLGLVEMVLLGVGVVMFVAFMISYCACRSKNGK
Procedure: The hearts from Sprague Dawley rats (300 g-325 g) from Charles River, used as a source of cardiac membranes, were prepared as follows: the heart was washed with ice-cold saline, and fatty and connective tissue was removed. The tissue was cut into small pieces with scissors and placed in a Sorvall centrifuge tube containing 5 ml/g of fresh tissue of Buffer A (10 mM NaHCO3, 5 mM NaN3, 10 μM Pefabloc, 0.1 μM Aprotinin, 1 μM Pepstatin A, 1 μM Leupeptin, pH 7.0). The suspension was homogenized with a Polytron at low speed, 3×15 sec. The homogenate was centrifuged at 8 700×g for 20 min and the supernatant was put on ice. The pellet was resuspended and homogenized with a Glass-teflon Potter by 5 strokes. The homogenate was centrifuged at 8 700×g for 10 min and this supernatant was combined with the first supernatant. The supernatant fluid was centrifuged at 35 000×g for 20 min, yielding a second pellet fraction that was suspended thoroughly in a glass homogenizer with a Teflon pestle in 20 ml/g of fresh tissue of Buffer B (20 mM Tris-maleate, 0.6M KCl, pH 6.8). The resulting suspension was centrifuged again at 35 000×g for 60 min. The third pellet fraction was resuspended thoroughly in a glass homogenizer with a Teflon pestle in 20 ml/g of fresh tissue of Buffer C (10 mM Tris/HCl buffer pH 7.4) followed with another centrifugation at 35 000×g for 60 min. The harvested precipitate was then suspended in a small volume (1-2 ml/g of fresh tissue) of 50 mM Tris/HCl buffer pH 7.4) containing 2 mM EGTA. The resulting membrane preparation was frozen at −80° C. Protein concentration was determined with bicinchoninic acid (BCA) method, using BSA as standard.
The iodination procedure was performed in the darkness. […] The reaction was started by adding 5 ul (3 nmol) of H2O2. The incubation was carried out at 22° C. for 5 min. The addition of H2O2 was repeated twice with 5 min incubation each time. The reaction was stopped with the addition of 1.4 ml of 0.1% TFA. The iodinated peptide was purified on a reverse-phase Vydac C18 column with a 60 min linear gradient (1 ml/min) from 20% to 50% acetonitrile (90%) in 0.1% TFA (10%).
Nonspecific binding was defined as binding not displaced by 50 μM corresponding peptide. All peptide containing solutions were diluted in Buffer B. Buffer A and B were degassed under vacuum, and used in capped tubes in order to minimize lipid peroxydation. Before the incubation period, all tubes were put under a low flow of nitrogen. All material was kept on ice and the binding assay was performed in darkness. After an incubation period of 60 min at 22° C. […] After centrifugation at 12 000×g for 15 minutes, the pellets were resuspended in 150 μl of sample buffer (62 mM Tris-HCl, pH 6.8, 2% SDS, 10% glycerol, 15% 2-mercapto-ethanol, and 0.05% bromophenol blue), and boiled for 5 min prior to being subjected to electrophoresis. Proteins (200 μg/100 μl) were separated on 7.5% SDS-PAGE (45 V overnight). The gels resulting from SDS/PAGE were fixed, colored in Coomassie Brilliant Blue R-250, dried, exposed to a storage phosphor intensifying screen (Amersham Biosciences), and analysed by using a Typhoon PhosphorImager (Amersham Biosciences) and ImageQuant 5.0 software to establish competition curves. Protein bands were quantified by densitometry. The covalent binding signal of 87 kDa was analyzed by densitometry using Typhoon Phospholmager™ (Typhoon, Amersham Biosciences) and ImageQuant 5.0® software to set competition curves.
Specific binding activities were defined as the ratio of the density of the protein band to that of a non-specific band. Results are expressed as the percentage of the density of the […] to that of the total binding band.

[2] = target: human GHS-R1a (Homo sapiens (Human), UniProt Q92847); assay: GHS-R1a binding assay, competition with 125I-ghrelin on membranes of LLC-PK1 cells expressing human GHS-R1a; conditions: for pIC50: Table 5, read-out: IC50 Binding GHS-R1a
Sequence of human GHS-R1a (Q92847 whole entry): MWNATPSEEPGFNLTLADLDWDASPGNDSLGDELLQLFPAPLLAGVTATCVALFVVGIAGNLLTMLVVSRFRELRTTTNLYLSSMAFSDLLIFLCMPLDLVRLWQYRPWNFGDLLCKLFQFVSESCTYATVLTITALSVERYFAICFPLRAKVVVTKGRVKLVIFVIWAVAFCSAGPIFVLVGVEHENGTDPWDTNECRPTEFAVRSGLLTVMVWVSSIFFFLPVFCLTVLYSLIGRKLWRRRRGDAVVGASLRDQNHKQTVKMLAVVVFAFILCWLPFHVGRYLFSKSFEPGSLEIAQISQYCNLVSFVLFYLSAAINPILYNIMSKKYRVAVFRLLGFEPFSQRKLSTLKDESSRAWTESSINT
Procedure: Rat ghrelin was radio iodinated with Na^125I using the lodo-Beads iodination reagent (Pierce #28665). Briefly, an lodo-bead was incubated with 2 mCi of Na^125I (Amersham) in 100 μL of 50 mM sodium phosphate buffer, pH 7.0 for 5 min at 22° C. The reaction was started by adding 20 nmol of the peptide (1 mM in 0.1 M acetic acid). The tube was incubated for 10 min at 22° C. The iodination was terminated by adding 1 mL of 0.1% TFA. The mono-iodinated peptide was purified by reverse-phase HPLC using a Vydac C18 ([…]) column (30 cm×0.39 cm) in combination with a binary elution system of (A) 0.1% TFA in H2O and (B) 0.1% TFA, 10% H2O, 90% acetonitrile. Fractions of 0.5 mL were collected and analyzed by its radioactive content.
Cells (1.4×10^6) were plated in 100 mm plates and transfected 24 h later with pCDNA3.1-hGHS-R1a (UMR cDNA Resource Center #GHSR0A0000) following the CaHPO4 precipitation method. Briefly, 40 μg of plasmid DNA was diluted in 500 μL of sterile H2O and added to an equal volume of a 4× CaCl2, pH 7.9 solution (2 mM Tris-HCl, 0.2 mM EDTA, 500 mM CaCl2). The mixture was then added slowly with air bubbles to 1 mL of 2× Hepes-buffered saline, pH 7.1 (50 mM Hepes, 280 mM NaCl, 1.5 mM Na2HPO4). After 30 min at room temperature, 1 mL was distributed evenly over the cells and let overnight. The medium was changed the next morning and the membrane preparation was made two days later.
Cells were washed twice with PBS and once with ice-cold homogenization buffer (50 mM Tris-HCl, pH 7.3, 5 mM MgCl2, 2.5 mM EDTA, 30 μg/ml bacitracin). Cells were scraped and harvested in 1.5 mL tubes. Cells were then lysed by temperature shock with two freeze/thaw cycles in liquid nitrogen. The tubes were centrifuged at 14000 g for 20 min. Pellets were resuspended in homogenization buffer and stored at −80° C. until used. Total protein concentrations were determined with the BCA protein assay kit (Pierce).
Competition experiments were performed by incubating 50 μg of LLC-PK1 membranes expressing human GHS-R1a with 15 fmol of ^125I-Ghrelin and increasing concentrations of unlabeled ghrelin or with increasing concentrations of azapeptides derivatives in 0.5 mL of binding buffer. Bound radiolabelled ligand was separated from free by filtration on Whatman GF/C filters pretreated with a 1% polyethylenimine solution. Filters were washed with 2×3 mL of washing buffer (50 mM Tris-HCl, pH 7.3, 10 mM MgCl2, 2.5 mM EDTA, 0.015% Triton X-100). Filters were counted in a LKB gamma counter. Curves were analyzed using Prism software (GraphPad Software Inc).

[3] = Table 6, read-out: IC50 Binding CD36
[4] = Table 3, rat cardiac membranes, [125I]Tyr-Bpa-Ala-hexarelin as radioligand, read-out: IC50, binding affinity of aza peptide derivatives towards CD36

SMILES: C[C@H](NC(=O)[C@@H](Cc1ccccc1)NC(=O)[C@H](Cc1c[nH]c2ccccc12)NC(=O)[C@H](C)NC(=O)N(Cc1ccccc1)NC(=O)[C@@H](N)Cc1cnc[nH]1)C(N)=O [CP-1A (i), His-azaPhe-Ala-Trp-D-Phe-Ala-NH2] (H-H[azaPhe]AW[dF]A-NH2)
- pIC50 [1, 3]: < 5.00
- pIC50 ([2]; listed as CP-1A(i)): < 5.00
- pIC50 [2]: 4.29

SMILES: C[C@H](NC(=O)[C@H](C)NC(=O)N(Cc1ccccc1)NC(=O)[C@@H](N)Cc1cnc[nH]1)C(=O)N[C@H](Cc1ccccc1)C(=O)N[C@@H](CCCCN)C(N)=O [CP-1A (iii), (D/L)His-azaPhe-Ala-Ala-D-Phe-Lys-NH2] (H-H[azaPhe]AA[dF]K-NH2)
- pIC50 [1, 3]: 4.56
- pIC50 [2]: < 5.00

SMILES: C[C@H](N)C(=O)NN(Cc1ccccc1)C(=O)N[C@@H](C)C(=O)N[C@@H](Cc1c[nH]c2ccccc12)C(=O)N[C@H](Cc1ccccc1)C(=O)N[C@@H](CCCCN)C(N)=O [CP-1A (iv), Ala-azaPhe-Ala-Trp-D-Phe-Lys-NH2] (H-A[azaPhe]AW[dF]K-NH2)
- pIC50 [1, 3]: 5.30
- binding activity/affinity at CD36 in words [1]: without major change
- pIC50 [2]: < 5.00
- binding affinity for GHS-R1a receptor in words ([2]; compared with GHRP-6): decreased drastically

SMILES: C[C@H](NC(=O)[C@@H](Cc1ccccc1)NC(=O)[C@H](Cc1c[nH]c2ccccc12)NC(=O)[C@H](C)NC(=O)N(Cc1ccc(O)cc1)NC(=O)[C@@H](N)Cc1cnc[nH]1)C(N)=O [CP-1B (i), His-AzaTyr-Ala-Trp-D-Phe-Ala-NH2] (H-H[azaTyr]AW[dF]A-NH2)
- pIC50 [1, 3]: 4.14
- pIC50 [2]: < 5.00

SMILES: C[C@H](NC(=O)N(Cc1ccc(O)cc1)NC(=O)[C@@H](N)Cc1cnc[nH]1)C(=O)N[C@@H](Cc1c[nH]c2ccccc12)C(=O)N[C@H](C)C(=O)N[C@@H](CCCCN)C(N)=O [CP-1B (ii), His-azaTyr-Ala-Trp-D-Ala-Lys-NH2] (H-H[azaTyr]AW[dA]K-NH2)
- pIC50 [1, 3]: < 5.00
- pIC50 [2]: < 5.00

SMILES: C[C@H](N)C(=O)NN(Cc1ccc(O)cc1)C(=O)N[C@@H](C)C(=O)N[C@@H](Cc1c[nH]c2ccccc12)C(=O)N[C@H](Cc1ccccc1)C(=O)N[C@@H](CCCCN)C(N)=O [CP-1B (iv), Ala-AzaTyr-Ala-Trp-D-Phe-Lys-NH2] (H-A[azaTyr]AW[dF]K-NH2)
- pIC50 [1, 3]: 4.76
- pIC50 [2]: < 5.00

SMILES: C[C@H](N)C(=O)N[C@H](Cc1c[nH]c2ccccc12)C(=O)NNC(=O)N[C@@H](Cc1c[nH]c2ccccc12)C(=O)N[C@H](Cc1ccccc1)C(=O)N[C@@H](CCCCN)C(N)=O [CP-2A(v), Ala-D-Trp-azaGly-Trp-D-Phe-Lys-NH2] (H-A[dW][azaGly]W[dF]K-NH2)
- pIC50 [1, 3]: 5.06

SMILES: CC(C)CN(NC(=O)[C@@H](Cc1c[nH]c2ccccc12)NC(=O)[C@@H](N)Cc1cnc[nH]1)C(=O)N[C@@H](Cc1c[nH]c2ccccc12)C(=O)N[C@H](Cc1ccccc1)C(=O)N[C@@H](C)C(N)=O [CP-2B (i), His-D-Trp-azaLeu-Trp-D-Phe-Ala-NH2] (H-H[dW][azaLeu]W[dF]A-NH2)
- pIC50 [1, 3]: 5.04
- binding activity/affinity at CD36 in words [1]: retained significant activity similar to the parent peptide
- pIC50 [2]: 5.09

SMILES: NCCCC[C@H](NC(=O)[C@@H](Cc1ccccc1)NC(=O)[C@H](Cc1c[nH]c2ccccc12)NC(=O)NNC(=O)[C@@H](Cc1c[nH]c2ccccc12)NC(=O)[C@@H](N)Cc1cnc[nH]1)C(N)=O [DBG188p, His-D-Trp-azaGly-Trp-D-Phe-Lys-NH2] (H-H[dW][azaGly]W[dF]K-NH2)
- pIC50 [1, 4]: 5.02
- binding activity/affinity at CD36 in words [1]: retained significant activity similar to the parent peptide

SMILES: C[C@H](NC(=O)N(Cc1cccc2ccccc12)NC(=O)[C@@H](N)Cc1cnc[nH]1)C(=O)N[C@@H](Cc1c[nH]c2ccccc12)C(=O)N[C@H](Cc1ccccc1)C(=O)N[C@@H](CCCCN)C(N)=O [DBG253-10, His-azaNal-1-Ala-Trp-D-Phe-Lys-NH2] (H-H[X3]AW[dF]K-NH2)
- pIC50 [1, 4]: 2.71
